Laboratory results taken from article PMC11249646, “Small-Molecule Disruptors of the Interaction between Calcium- and Integrin-Binding Protein 1 and Integrin αIIbβ3 as Novel Antiplatelet Agents” (ACS Pharmacology & Translational Science, 2024).
Read-outs that look alike come from different tables or passages of the source.

Target: T1, CIB1 and αIIb interaction (CIB1-GST : F-αIIb peptide) (Homo sapiens, UniProt Q99828)
T1 construct: made in house; host or cells: BL-21 plus RIL cells (E. coli)
T1 sequence (Q99828 1-191): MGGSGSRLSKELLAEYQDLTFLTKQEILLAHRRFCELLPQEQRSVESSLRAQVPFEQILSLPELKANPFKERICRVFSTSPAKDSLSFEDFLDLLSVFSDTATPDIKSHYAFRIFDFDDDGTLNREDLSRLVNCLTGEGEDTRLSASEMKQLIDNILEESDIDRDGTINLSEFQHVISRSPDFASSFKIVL
Test: FP assay, 1536-well qHTS format (primary and confirmatory screen)
Type: binding
Details: for Efficacy (%): negative = inhibition; for Curve Class: negative sign = inhibitory curve; for IC50: read-out: IC50

[1] = qHTS primary screen hits, Table S2
[2] = qHTS primary screen of LOPAC/NPACT libraries
[3] = qHTS primary screen hits, Table S2, several classes where COUNT > 1
[4] = qHTS FP screen hits, Table S2, one class per curve where COUNT > 1

Row | Compound | Efficacy (%) [1] | IC50 [1] | Efficacy (%) [2] | Curve Class [2] | IC50 [2] | Curve Class [3] | other results
1 | Oc1ccccc1C1Nc2cccc3cccc(c23)N1 [NCGC00026112-04] | -42% | 56.2 µM |  |  |  |  | Curve Class [1]: -2.2
2 | CCC(C)CC(=O)OC1C(=O)C(CO)=CC(O)C1C(C)C (stereo not drawn) [NCGC00381331-01] |  |  | -22% | -2.4 | 56.2 µM |  | 
3 | Cc1ccnc(NC(=S)N2CCN(c3cccc(C(F)(F)F)c3)CC2)n1.O=C(O)C(F)(F)F [NCGC00242308-01] | -41% | 79.4 µM |  |  |  | -2.2 | 
4 | COc1cc(Nc2ccc([N+](=O)[O-])cc2C(=O)O)cc2ccccc12 [NCGC00402240-03] |  |  | -27% | -2.4 | 50.1 µM |  | 
5 | C=C1CC2OC(=O)C(=C)C2C(OC(=O)/C(C)=C\C)CC2(C)OC1=CC2=O (stereo not drawn) [NCGC00384607-01] |  |  | -25% | -1.4 | 11.2 µM |  | 
6 | COc1ccc2c(c1)C(=O)N(CCc1ccc(S(=O)(=O)NC(=O)NC3CCCCC3)cc1)C(=O)C2(C)C [NCGC00016819-06] |  |  | -31% | -2.4 | 44.7 µM |  | 
7 | CC(=O)N[C@@H](CC(=O)O)C(=O)N[C@@H](CCC(=O)O)C(=O)N[C@H](C(=O)N[C@@H](CC(=O)O)C(=O)Nc1ccc2c(C)cc(=O)oc2c1)C(C)C [NCGC00485360-01] | -37% | 39.8 µM |  |  |  |  | Curve Class (qHTS primary screen hits, Table S2, NPACT library): -2.4
8 | CC[n+]1c(-c2ccccc2)c2cc(N)ccc2c2ccc(N)cc21.[Br-] [NCGC00091387-08] | -61% | 56.2 µM |  |  |  | -2.4 | 
9 | CCCCCCCCCCCCCCCC[n+]1ccccc1.[Br-] [NCGC00091023-06] | -31% | 89.1 µM |  |  |  | -2.4 | 
10 | CN1CCN(CCCN2c3ccccc3Sc3ccc(C(F)(F)F)cc32)CC1.Cl.Cl [NCGC00261917-01] |  |  | -35% | -2.4 |  |  | 
11 | N#CC(=C(\N)Sc1ccccc1N)/C(C#N)=C(/N)Sc1ccccc1N [NCGC00094462-03] |  |  | -18% | -3 | 20 µM |  | 
12 | CCCC(=O)OC[C@@H](OC(=O)CCC)[C@@H](OC(=O)CCC)[C@H](Cn1c2nc(=O)[nH]c(=O)c-2nc2cc(C)c(C)cc21)OC(=O)CCC [NCGC00181300-01] | -140% | 2.8 µM |  |  |  | -1.1 | 
13 | CCCCCCCc1ccc(CCc2cccc(O)c2C(=O)O)cc1 [NCGC00263121-01] | -33% | 24.1 µM |  |  |  | -3 | 
14 | O=C(O)C(F)(F)F.O=C1c2ccccc2NC(c2ccc(-c3cccc([N+](=O)[O-])c3)o2)N1O (stereo not drawn) [NCGC00183384-01] | -23% | 56.2 µM |  |  |  | -2.4 | 
15 | Cc1cc(N2CCOCC2)cc2[nH]c(-c3c(NC[C@@H](O)c4cccc(Cl)c4)cc[nH]c3=O)nc12 [NCGC00346460-05] |  |  | -28% | -1.4 | 17.8 µM |  | 
16 | O=C([C@@H]1CCCN(c2ccc3[nH]c(C4(n5cc(Cl)cn5)CC4)nc3n2)C1)N1CCCC1 [NCGC00485074-01] |  |  | -26% | -2.4 | 70.8 µM |  | 
17 | Oc1cccc(C2=C3C=CC(=N3)C(c3cccc(O)c3)=C3C=CC(=N3)C(c3cccc(O)c3)=C3CCC(=N3)C(c3cccc(O)c3)=C3C=CC2=N3)c1 [NCGC00183015-01] | -29% | 50.1 µM |  |  |  | -2.4 | 
18 | COc1ccnc2c1CCCCC2[S+]([O-])c1nc2ccccc2[nH]1 (stereo not drawn) [NCGC00253591-01] | -30% | 56.2 µM |  |  |  | -2.2 | 
19 | CNc1nc2c(s1)C(c1ccc(OC)cc1OC)CC(=O)N2.O=C(O)C(F)(F)F (stereo not drawn) [NCGC00488262-02] | -39% | 56.2 µM |  |  |  |  | Curve Class [1]: -2.4
20 | Cc1cc2c(cc1C1(c3ccc(C(=O)O)cc3)CC1)C(C)(C)CCC2(C)C [NCGC00241454-01] | -27% | 79.4 µM |  |  |  | -2.4 | 
21 | OCCCc1ccccc1 [NCGC00165987-03] | -35% | 56.2 µM |  |  |  | -2.2 | 
22 | COc1cccc(CNC(=O)C2=NC3SC=C(COCc4ccc(C(=O)O)cc4)C3C(=O)N2)c1 (stereo not drawn) [NCGC00488702-01] |  |  | -27% | -1.4 | 5.6 µM |  | 
23 | O=C(O)C(F)(F)F.O=C(O)c1ccc(-c2ccc3ncnc(NCc4cccs4)c3c2)o1 [NCGC00189277-01] | -25% | 89.1 µM |  |  |  | -2.4 | 
24 | CN1CCN(c2ncc3nc(-c4cn(C)c5ccccc45)c(=O)n(Cc4cccs4)c3n2)CC1.O=C(O)C(F)(F)F [NCGC00012779-02] | -27% | 50.1 µM |  |  |  | -2.4 | 

Row | Compound | Efficacy (%) [1] | IC50 [1] | Efficacy (%) [2] | Curve Class [2] | IC50 [2] | Curve Class [3] | other results
25 | Cl.Nc1ccc2cc3ccc(N)cc3nc2c1.Nc1ccc2cc3ccc(N)cc3nc2c1.O=S(=O)(O)O [NCGC00166245-04] | -130% | 2.2 µM |  |  |  | -1.1 | 
26 | CC(=O)O[C@@H](CO[C@@H]1O[C@H](CO)[C@H](O)[C@H](O)[C@H]1O)[C@]1(C)C=C2CC[C@@H]3C(C)(C)[C@@H](O)CC[C@@]3(C)[C@@H]2CC1 [NCGC00347395-02] |  |  | -23% | -2.4 | 15.8 µM |  | 
27 | O=C(O)/C(=C/c1c(C(=O)O)[nH]c2cc(Cl)cc(Cl)c12)c1ccccc1 [NCGC00015639-04] |  |  | -29% | -2.2 | 56.2 µM |  | 
28 | N.N.N.N.N.N.N.N.N.N.N.N.N.N.O.O.[Ru].[Ru].[Ru] [NCGC00162333-02] |  |  | -26% | -2.2 | 56.2 µM |  | 
29 | C=C1C(=O)OC2/C=C(\C)CC/C=C(\C)CC(OC(C)=O)C12 (stereo not drawn) [NCGC00385946-01] |  |  | -21% | -1.4 | 11.2 µM |  | 
30 | COc1ccc(OC)c(-n2c3c(cc(-c4nnn(-c5ccc(Cl)cc5)n4)c2=O)C(=O)CC(C)(C)C3)c1.O=C(O)C(F)(F)F [NCGC00347300-01] | -41% | 89.1 µM |  |  |  |  | Curve Class [1]: -3
31 | Cc1ccc(OCCn2c3c(c4ccccc42)CN(C(=O)C2CCCCC2)CC3)cc1.O=C(O)C(F)(F)F [NCGC00238717-01] | -46% | 56.2 µM |  |  |  | -2.4 | 
32 | CCOC(=O)N1CCN([N+]([O-])=NOc2ccc([N+](=O)[O-])cc2[N+](=O)[O-])CC1 [NCGC00261300-01] | -44% | 21.3 µM |  |  |  |  | 
33 | O.O.O=c1c(O)c(-c2ccc(O)c(O)c2)oc2cc(O)cc(O)c12 [NCGC00015870-27] | -30% |  |  |  |  |  | 
34 | O=C(O)C(F)(F)F.O=C(c1cnc(N2CCCCC2)c2ccccc12)N1CCN(c2ccccc2)CC1 [NCGC00262736-01] | -64% | 31.6 µM |  |  |  |  | Curve Class [1]: -3
35 | CC(=O)O.Cc1ccc(OCCn2c(CCNC(=O)c3ccc(N)cc3)nc3ccccc32)cc1 [NCGC00241723-01] | -31% | 44.7 µM |  |  |  |  | Curve Class [1]: -1.4
36 | COc1ccc(C2CC(=O)Nc3nc(N4CCOCC4)sc32)c(OC)c1.O=C(O)C(F)(F)F (stereo not drawn) [NCGC00488259-02] | -59% | 56.2 µM |  |  |  | -2.4 | 
37 | O=C(Nc1ccc(S(=O)(=O)N2CCOCC2)cc1)c1cc(Cl)ccc1NS(=O)(=O)c1ccc(Cl)s1 [NCGC00249417-02] |  |  |  |  |  |  | Efficacy (%) (qHTS FP screen hits, Table S2): -34%; IC50 (qHTS FP screen hits, Table S2): 40.9 µM
38 | Cn1cnc2c1c(=O)[nH]c(=O)n2C [NCGC00016023-18] | -74% | 89.1 µM |  |  |  | -3 | 
39 | CCOc1ccc(Cc2nc(-c3c(C)nc4ccccn34)cs2)cc1 [NCGC00485083-01] |  |  | -29% | -2.4 | 44.7 µM |  | 
40 | CN1CCN(c2ccc(NC(=O)CN(C)Cc3c(O)ccc4ccccc34)cc2)CC1.O=C(O)C(F)(F)F [NCGC00229739-01] | -49% | 89.1 µM |  |  |  | -3 | 
41 | C=C1C(=O)[C@@]23C(CC[C@@H]1[C@H]2O)[C@@]12CO[C@]3(O)[C@@H](O)[C@@H]1C(C)(C)CC[C@@H]2O (stereo partly drawn) [NCGC00346595-01] |  |  |  |  |  |  | Efficacy (%) (qHTS FP screen hits, Table S2): -48%; IC50 (qHTS FP screen hits, Table S2): 33.3 µM
42 | CC[C@@H](CO)NC(=O)[C@@H]1C=C2c3cccc4c3c(cn4C)C[C@H]2N(C)C1 [NCGC00024027-09] |  |  |  |  |  |  | Efficacy (%) (qHTS FP screen hits, Table S2): -89%; Curve Class [4]: -2.2; IC50 (qHTS FP screen hits, Table S2): 44.7 µM
43 | CC(C)=CCc1ccc(Oc2c(O)cc(C)cc2CO)c(C(=O)O)c1O [NCGC00169025-02] |  |  | -26% | -2.4 | 44.7 µM |  | 
44 | CCCCCCCCOc1ccccc1C(=O)Nc1ccc(C(=O)OCC[N+](C)(CC)CC)cc1.[Br-] [NCGC00163507-03] |  |  |  |  |  |  | Efficacy (%) (qHTS FP screen hits, Table S2): -39%; Curve Class [4]: -1.2; IC50 (qHTS FP screen hits, Table S2): 22.4 µM
45 | CNC(=O)c1ccccc1Nc1cc(Nc2ccc(N3CCOCC3)cc2OC)ncc1C(F)(F)F [NCGC00378620-04] |  |  | -24% | -1.4 | 6.3 µM |  | 
46 | CN1CCN(c2ccc(C(=O)Nc3n[nH]c4ccc(Cc5cc(F)cc(F)c5)cc34)c(NC3CCOCC3)c2)CC1 [NCGC00484067-01] |  |  | -21% | -2.4 | 56.2 µM |  | 
47 | Cc1c(OCC(F)(F)F)ccnc1C[S+]([O-])c1nc2ccccc2[nH]1 (stereo not drawn) [NCGC00015615-15] | -26% | 50.1 µM |  |  |  |  | Curve Class [1]: -2.4
